This note sets out measurements from patent US11773094B2, “Farnesoid X receptor agonists and uses thereof” (Metacrine, Inc., priority 2018, dated 2023).

This assay deals with T1, hFXR (Homo sapiens, UniProt Q96RI1).
T1 construct: expressed in transfected cells; host or cells: CV-1 cells
T1 sequence (Q96RI1 1-486): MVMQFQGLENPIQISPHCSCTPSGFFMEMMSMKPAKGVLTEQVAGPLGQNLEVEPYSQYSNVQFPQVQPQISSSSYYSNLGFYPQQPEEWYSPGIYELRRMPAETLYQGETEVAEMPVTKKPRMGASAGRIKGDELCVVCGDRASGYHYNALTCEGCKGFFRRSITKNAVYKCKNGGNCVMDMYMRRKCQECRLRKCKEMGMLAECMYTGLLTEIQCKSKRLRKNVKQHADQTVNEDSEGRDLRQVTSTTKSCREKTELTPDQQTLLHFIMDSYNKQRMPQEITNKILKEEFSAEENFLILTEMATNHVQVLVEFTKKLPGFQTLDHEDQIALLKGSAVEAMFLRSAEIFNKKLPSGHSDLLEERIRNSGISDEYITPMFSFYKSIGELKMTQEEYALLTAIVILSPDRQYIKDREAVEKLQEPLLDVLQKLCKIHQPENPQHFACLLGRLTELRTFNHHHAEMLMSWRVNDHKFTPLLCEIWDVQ
T1 sequence (P19793 1-462 partner): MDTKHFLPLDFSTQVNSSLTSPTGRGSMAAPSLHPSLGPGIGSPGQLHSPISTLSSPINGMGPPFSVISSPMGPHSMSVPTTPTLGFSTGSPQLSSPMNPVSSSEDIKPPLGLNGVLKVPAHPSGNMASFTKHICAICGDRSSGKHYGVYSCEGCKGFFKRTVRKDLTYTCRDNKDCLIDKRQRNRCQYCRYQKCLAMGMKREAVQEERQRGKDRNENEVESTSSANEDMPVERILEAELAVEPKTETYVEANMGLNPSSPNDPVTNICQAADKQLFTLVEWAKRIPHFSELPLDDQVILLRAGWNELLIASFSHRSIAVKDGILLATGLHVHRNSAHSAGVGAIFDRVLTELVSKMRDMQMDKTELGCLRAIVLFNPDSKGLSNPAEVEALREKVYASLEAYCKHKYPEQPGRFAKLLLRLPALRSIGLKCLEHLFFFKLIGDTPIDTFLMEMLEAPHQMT
Description: In Vitro FXR Assay (TK): TK-ECRE-luc reporter in transfected CV-1 cells. It is filed as cell-based. The conditions noted are these: CV-1 cells transfected with hFXR, hRXR, pCMX-YFP, 18 hrs incubation, luminescence. The gist of the method:
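Transactivation is scored as luminescence in CV-1 cell lysates. The cells, co-transfected with hFXR/hRXR and a TK-ECRE-luc reporter, are exposed to DMSO-diluted compounds for 18 h.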

SMILES strings stand for the structures.

`CCC(C)(CC)n1cc(-c2ccnc(N(CC34CCC(c5ccc(OC)c(C)c5)(CC3)CC4)C(=O)[C@H]3CC[C@H](OC(=O)N4CC(C)(O)C4)CC3)c2)cn1` [Compound 4.05, 4-(((4-(4-Methoxy-3-methylphenyl)bicyclo[2.2.2]octan-1-yl)methyl)(4-(1-(3-methylpentan-3-yl)-1H-pyrazol-4-yl)pyridin-2-yl)carbamoyl)cyclohexyl trans-3-hydroxy-3-methylazetidine-1-carboxylate] showed an EC50 of at most 10 nM. In turn, `COc1ccc(C23CCC(CN(c4cc(-c5cnc(C(C)(C)C)s5)ccn4)C(=O)[C@H]4CC[C@H](OC(=O)NCCC(C)(C)O)CC4)(CC2)CC3)cc1C` [Compound 2.08, 4-((4-(2-(tert-Butyl)thiazol-5-yl)pyridin-2-yl)((4-(4-methoxy-3-methylphenyl)bicyclo[2.2.2]octan-1-yl)methyl)carbamoyl) (trans-cyclohexyl) (3-hydroxy-3-methylbutyl)carbamate] came in with an EC50 of at most 10 nM.

Regarding `COc1ccc(C23CCC(CN(c4cc(-c5cnn(C(C)(C)C(F)(F)F)c5)ccn4)C(=O)[C@H]4CC[C@H](OC(=O)N5CC(O)C5)CC4)(CC2)CC3)cc1C` [Compound 4.09, 4-(((4-(4-Methoxy-3-methylphenyl)bicyclo[2.2.2]octan-1-yl)methyl)(4-(1-(1,1,1-trifluoro-2-methylpropan-2-yl)-1H-pyrazol-4-yl)pyridin-2-yl)carbamoyl)cyclohexyl trans-3-hydroxyazetidine-1-carboxylate], the EC50 was at most 10 nM. To `COc1ccc(C23CCC(CN(c4cncc(-c5cnn(C(C)(C)C)c5)n4)C(=O)[C@H]4CC[C@H](OC(=O)N5CC(O)C5)CC4)(CC2)CC3)cc1C` [Compound 3.12, 4-((6-(1-(tert-Butyl)-1H-pyrazol-4-yl)pyrazin-2-yl)((4-(4-methoxy-3-methylphenyl)bicyclo[2.2.2]octan-1-yl)methyl)carbamoyl) (trans-cyclohexyl) 3-hydroxyazetidine-1-carboxylate] belongs 10 to 1000 nM. In the case of `COc1ccc(C23CCC(CN(c4cc(-c5coc(C(C)(C)C)n5)ccn4)C(=O)[C@H]4CC[C@H](OC(=O)N5CC(CO)C5)CC4)(CC2)CC3)cc1C` [Compound 2.15, 4-((4-(2-(tert-Butyl)oxazol-4-yl)pyridin-2-yl)((4-(4-methoxy-3-methylphenyl)bicyclo[2.2.2]octan-1-yl)methyl)carbamoyl) (trans-cyclohexyl) 3-(hydroxymethyl)azetidine-1-carboxylate], the concentration giving a half-maximal response (EC50) is at most 10 nM. To `COc1ncc(C23CCC(CN(c4cc(-c5cnn(C(C)(C)C)c5)ccn4)C(=O)[C@H]4CC[C@H](OC(=O)N5CC(O)C5)CC4)(CC2)CC3)cc1C` [Compound 3.05, 4-((4-(1-(tert-Butyl)-1H-pyrazol-4-yl)pyridin-2-yl)((4-(6-methoxy-5-methylpyridin-3-yl)bicyclo[2.2.2]octan-1-yl)methyl)carbamoyl) (trans-cyclohexyl) 3-hydroxyazetidine-1-carboxylate] belongs at most 10 nM; to `COc1ccc(C23CCC(CN(c4cc(-n5ccc(C(C)(C)C)n5)ccn4)C(=O)[C@H]4CC[C@H](OC(=O)N5CC(O)C5)CC4)(CC2)CC3)cc1C` [Compound 2.35, 4-((4-(3-(tert-Butyl)-1H-pyrazol-1-yl)pyridin-2-yl)((4-(4-methoxy-3-methylphenyl)bicyclo[2.2.2]octan-1-yl)methyl)carbamoyl) cyclohexyl trans-3-hydroxyazetidine-1-carboxylate], 10 to 1000 nM; to `COc1ccc(C23CCC(CN(c4cc(-c5coc(C(C)(C)C)n5)ccn4)C(=O)[C@H]4CC[C@H](OC(=O)N5CC[C@H]5CO)CC4)(CC2)CC3)cc1C` [Compound 2.11, (S)-4-((4-(2-(tert-Butyl)oxazol-4-yl)pyridin-2-yl)((4-(4-methoxy-3-methylphenyl)bicyclo[2.2.2]octan-1-yl)methyl)carbamoyl)cyclohexyl 2-(hydroxymethyl)azetidine- trans-1-carboxylate], at most 10 nM. With `COc1ccc(C23CCC(CN(c4cc(-c5cnc(C(C)(C)C)s5)ccn4)C(=O)[C@H]4CC[C@H](OC(=O)NC5COC5)CC4)(CC2)CC3)cc1C` [Compound 2.04, 4-((4-(2-(tert-Butyl)thiazol-5-yl)pyridin-2-yl)((4-(4-methoxy-3-methylphenyl)bicyclo[2.2.2]octan-1-yl)methyl)carbamoyl) (trans-cyclohexyl) oxetan-3-ylcarbamate], the EC50 was at most 10 nM. The compound `COc1ccc([C@H]2CC[C@H](CN(c3cc(-c4coc(C(C)(C)C)n4)ccn3)C(=O)[C@H]3CC[C@H](OC(=O)NC4CCOCC4)CC3)CC2)cc1C` [Compound 1.07, trans-4-((4-(2-(tert-Butyl)oxazol-4-yl)pyridin-2-yl)(((trans)-4-(4-methoxy-3-methylphenyl)cyclohexyl)methyl)carbamoyl) cyclohexyl (tetrahydro-2H-pyran-4-yl)carbamate] displayed an EC50 of 10 to 1000 nM. In turn, `COc1ccc(C23CCC(CN(c4cc(-c5cnn(C(C)(C)C)c5)ccn4)C(=O)[C@H]4CC[C@H](OC(=O)N5CC(S(C)(=O)=O)C5)CC4)(CC2)CC3)cc1C` [Compound 2.23, 4-((4-(1-(tert-Butyl)-1H-pyrazol-4-yl)pyridin-2-yl)((4-(4-methoxy-3-methylphenyl)bicyclo[2.2.2]octan-1-yl)methyl)carbamoyl) (trans-cyclohexyl) 3-(methylsulfonyl)azetidine-1-carboxylate] yielded an EC50 of at most 10 nM.

Take `COc1ccc(C23CCC(CN(c4cc(-c5cnc(C(C)(C)C)s5)ccn4)C(=O)[C@H]4CC[C@H](OC(=O)N5CCC(O)CC5)CC4)(CC2)CC3)cc1C` [Compound 2.05, 4-((4-(2-(tert-Butyl)thiazol-5-yl)pyridin-2-yl)((4-(4-methoxy-3-methylphenyl)bicyclo[2.2.2]octan-1-yl)methyl)carbamoyl)cyclohexyl 4-hydroxypiperidine- trans-1-carboxylate]: the concentration giving a half-maximal response (EC50) was at most 10 nM. In turn, `COc1ccc(C23CCC(CN(c4cc(-c5coc(C(C)(C)C)n5)ccn4)C(=O)[C@H]4CC[C@H](OC(=O)NCCCO)CC4)(CC2)CC3)cc1C` [Compound 2, 4-((4-(2-(tert-Butyl)oxazol-4-yl)pyridin-2-yl)((4-(4-methoxy-3-methylphenyl)bicyclo[2.2.2]octan-1-yl)methyl)carbamoyl) (trans-cyclohexyl) (3-hydroxypropyl)carbamate] returned an EC50 of at most 10 nM. To `COc1c(C)cc(C23CCC(CN(c4cc(-c5cnn(C(C)(C)C)c5)ncn4)C(=O)[C@H]4CC[C@H](OC(=O)N5CC(O)C5)CC4)(CC2)CC3)cc1C` [Compound 2.37, 4-((6-(1-(tert-Butyl)-1H-pyrazol-4-yl)pyrimidin-4-yl)((4-(4-methoxy-3,5-dimethylphenyl)bicyclo[2.2.2]octan-1-yl)methyl)carbamoyl) (trans-cyclohexyl) 3-hydroxyazetidine-1-carboxylate] belongs 10 to 1000 nM; to `COc1ccc(C23CCC(CN(c4cc(-c5cnc(C(C)(C)C)s5)ccn4)C(=O)[C@H]4CC[C@H](OC(=O)NC5CCOCC5)CC4)(CC2)CC3)cc1C` [Compound 3.09, 4-((4-(2-(tert-Butyl)thiazol-5-yl)pyridin-2-yl)((4-(4-methoxy-3-methylphenyl)bicyclo[2.2.2]octan-1-yl)methyl)carbamoyl) cyclohexyl (tetrahydro-2H-pyran-4-yl)trans-carbamate], 10 to 1000 nM. To `CCC(C)(CC)n1cc(-c2ccnc(N(CC34CCC(c5ccc(OC)c(C)c5)(CC3)CC4)C(=O)[C@H]3CC[C@H](OC(=O)NCCCO)CC3)c2)cn1` [Compound 4.07, 4-(((4-(4-Methoxy-3-methylphenyl)bicyclo[2.2.2]octan-1-yl)methyl)(4-(1-(3-methylpentan-3-yl)-1H-pyrazol-4-yl)pyridin-2-yl)carbamoyl)cyclohexyl trans-(3-hydroxypropyl)carbamate] belongs at most 10 nM. `COc1ccc(C23CCC(CN(c4cc(-c5cnn(C(C)(C)C)c5)ccn4)C(=O)[C@H]4CC[C@H](OC(=O)N5CC(O)C5)CC4)(CC2)CC3)cc1C` [Compound 3, 4-((4-(1-(tert-Butyl)-1H-pyrazol-4-yl)pyridin-2-yl)((4-(4-methoxy-3-methylphenyl)bicyclo[2.2.2]octan-1-yl)methyl)carbamoyl)cyclohexyl 3-hydroxyazetidine-trans-1-carboxylate] returned a half-maximal effective concentration (EC50) of at most 10 nM. To `COc1ccc(C23CCC(CN(c4cc(-c5coc(C(C)(C)C)n5)ccn4)C(=O)[C@H]4CC[C@H](OC(=O)NCCC(C)(C)O)CC4)(CC2)CC3)cc1C` [Compound 2.20, 4-((4-(2-(tert-Butyl)oxazol-4-yl)pyridin-2-yl)((4-(4-methoxy-3-methylphenyl)bicyclo[2.2.2]octan-1-yl)methyl)carbamoyl) (trans-cyclohexyl) (3-hydroxy-3-methylbutyl)carbamate] belongs at most 10 nM.

Broadly, the EC50 is the midpoint of the concentration-response curve.
